According to the supplement of paper PMC10307832:

Compound: COc1cc2ncn(-c3cc(OCc4ccccc4C(F)(F)F)c(C(N)=O)s3)c2cc1OC + CC(=O)Nc1cccc(-n2c(=O)n(C3CC3)c(=O)c3c(Nc4ccc(I)cc4F)n(C)c(=O)c(C)c32)c1 [Trametinib] (partner 0.02 µM)
Assay: relative viability (nuclei count vs DMSO), 5 days (fraction); higher = more cells survive
Outline: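 Relative viability was taken as the ratio of nuclei in treated wells to nuclei in vehicle wells. Lung cancer cell lines in 1536-well plates received compounds by pin tool one day after seeding, either one drug alone or a fixed anchor-drug dose plus five library-drug doses (not always all listed) in √10 steps. Nuclei were counted on 4× images after 5 days of treatment, and values are medians of duplicate plates.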

| Cell Line | relative viability (first compound 0.05 µM) | relative viability (first compound 0.1581 µM) | relative viability (first compound 0.5 µM) | relative viability (first compound 1.581 µM) | relative viability (first compound 5 µM) |
| --- | --- | --- | --- | --- | --- |
| 201T | 0.707 | 0.728 | 0.691 | 0.647 | 0.301 |
| A-427 | 0.833 | 0.52 | 0.59 | 0.336 | 0.187 |
| BEN | 1.16 | 1.03 | 0.954 | 0.546 | 0.52 |
| CAL-12T | 0.387 | 0.278 | 0.272 | 0.178 | 0.161 |
| COR-L23 | 0.591 | 0.286 | 0.27 | 0.105 | 0.0781 |
| COR-L 105 | 0.446 | 0.436 | 0.438 | 0.353 | 0.326 |
| ChaGo-K-1 | 1.01 | 0.907 | 0.661 | 0.267 | 0.194 |
| EKVX | 0.36 | 0.307 | 0.365 | 0.173 | 0.201 |
| EMC-BAC-2 | 0.977 | 0.689 | 0.872 | 0.629 | 0.298 |
| EPLC-272H | 0.285 | 0.234 | 0.216 | 0.154 | 0.163 |
| H3255 | 0.609 | 0.545 | 0.568 | 0.411 | 0.301 |
| HARA | 0.423 |  | 0.609 | 0.149 | 0.0917 |
| HCC-15 | 0.227 | 0.378 | 0.259 | 0.112 | 0.0946 |
| HCC-44 | 0.977 | 0.935 | 0.874 | 0.387 | 0.225 |
| HCC-78 | 0.949 | 0.54 | 0.544 | 0.642 | 0.682 |
| HCC-366 | 0.114 | 0.35 | 0.12 | 0.0256 | 0.0157 |
| HCC-827 | 0.479 | 0.421 | 0.473 | 0.428 | 0.453 |
| HOP-62 | 0.35 | 0.284 | 0.348 | 0.163 | 0.136 |

| Cell Line | relative viability (first compound 0.05 µM) | relative viability (first compound 0.1581 µM) | relative viability (first compound 0.5 µM) | relative viability (first compound 1.581 µM) | relative viability (first compound 5 µM) |
| --- | --- | --- | --- | --- | --- |
| LC-2-ad | 1.02 | 0.821 | 0.662 | 0.211 | 0.188 |
| LCLC-97TM1 | 0.178 | 0.149 | 0.148 | 0.0713 | 0.0862 |
| LCLC-103H | 0.675 | 0.643 | 0.565 | 0.452 | 0.268 |
| LK-2 | 0.719 | 0.457 | 0.283 | 0.151 | 0.145 |
| LOU-NH91 | 0.783 | 0.776 | 0.719 | 0.52 | 0.295 |
| LU99A | 0.589 | 0.236 | 0.343 | 0.171 | 0.128 |
| LXF-289 | 0.685 | 0.551 | 0.491 | 0.142 | 0.0968 |
| NCI-H23 | 0.29 | 0.271 | 0.198 | 0.123 | 0.0957 |
| NCI-H322M | 0.503 | 0.486 | 0.47 | 0.463 | 0.384 |
| NCI-H358 | 0.146 | 0.114 | 0.104 | 0.116 | 0.096 |
| NCI-H441 | 0.537 | 0.423 | 0.156 | 0.133 | 0.113 |
| NCI-H460 | 0.247 | 0.101 | 0.102 | 0.0172 | 0.0148 |
| NCI-H520 | 0.644 | 0.561 | 0.236 | 0.171 | 0.166 |
| NCI-H596 | 0.469 | 0.695 | 0.802 | 0.439 | 0.297 |
| NCI-H647 | 0.544 | 0.388 | 0.279 | 0.0866 | 0.079 |
| NCI-H650 | 0.954 | 0.722 | 0.6 | 0.204 | 0.489 |
| NCI-H661 | 0.692 | 0.491 | 0.299 | 0.244 | 0.219 |
